ChEMBL document CHEMBL1157132, “Hydrolyzable tannins of tamaricaceous plants. III. Hellinoyl- and macrocyclic-type ellagitannins from Tamarix nilotica” (J Nat Prod, 2010)

How the values were obtained:
[1] = Cytotoxicity against human HPLF cells after 48 hrs by MTT assay; assay type: cell-based
HSC-3 = experiment: Cytotoxicity against human HSC3 cells after 48 hrs by MTT assay; assay type: functional; settings: HSC-3, 48 h
[2] = Cytotoxicity against human HGF cells after 48 hrs by MTT assay; assay type: cell-based
[3] = Cytotoxicity against human HPC cells after 48 hrs by MTT assay; assay type: cell-based
HSC-2 = experiment: Cytotoxicity against human HSC2 cells after 48 hrs by MTT assay; assay type: functional; settings: HSC-2, 48 h
HL-60 = experiment: Cytotoxicity against human HL60 cells after 48 hrs by MTT assay; assay type: functional; settings: HL-60, 48 h
HSC-4 = experiment: Cytotoxicity against human HSC4 cells after 48 hrs by MTT assay; assay type: functional; settings: HSC-4, 48 h

## O=C(O[C@@H]1O[C@@H]2COC(=O)c3cc(O)c(O)c(O)c3-c3c(cc(O)c(O)c3O)C(=O)O[C@H]2[C@H](OC(=O)c2cc(O)c(O)c(O)c2)[C@H]1OC(=O)c1cc(O)c(O)c(O)c1Oc1cc2c(c(O)c1O)Oc1cc(cc(O)c1O)C(=O)O[C@@H]1O[C@@H]3COC(=O)c4cc(O)c(O)c(O)c4-c4c(cc(O)c(O)c4O)C(=O)O[C@H]3[C@H](OC(=O)c3cc(O)c(O)c(O)c3)[C@H]1OC2=O)c1cc(O)c(O)c(O)c1 [HIRTELLIN B]
[1]
  CC50 at 48 h: 293 µM
HSC-3
  CC50: 99.3 µM
[2]
  CC50 at 48 h: 177 µM
[3]
  CC50 at 48 h: 78.5 µM
HSC-2
  CC50: 91.7 µM
HL-60
  CC50: 8.71 µM
HSC-4
  CC50: 74 µM

## O=C(O[C@@H]1O[C@@H]2COC(=O)c3cc(O)c(O)c(O)c3-c3c(cc(O)c(O)c3O)C(=O)O[C@H]2[C@H](OC(=O)c2cc(O)c(O)c(O)c2)[C@H]1OC(=O)c1cc(O)c(O)c(O)c1Oc1cc2c(c(O)c1O)Oc1cc(cc(O)c1O)C(=O)O[C@@H]1O[C@H](CO)[C@@H](O)[C@H](OC(=O)c3cc(O)c(O)c(O)c3)[C@H]1OC2=O)c1cc(O)c(O)c(O)c1 [NILOTININ D8]
[1]
  CC50 at 48 h: 358 µM
HSC-3
  CC50: 48.3 µM
[2]
  CC50 at 48 h: 318 µM
[3]
  CC50 at 48 h: 278 µM
HSC-2
  CC50: 32.3 µM
HL-60
  CC50: 22.9 µM
HSC-4
  CC50: 54.3 µM

## O=C1O[C@@H]2O[C@@H]3COC(=O)c4cc(O)c(O)c(O)c4-c4c(cc(O)c(O)c4O)C(=O)O[C@H]3[C@H](OC(=O)c3cc(O)c(O)c(O)c3)[C@H]2OC(=O)c2cc(Oc3c(C(=O)O)cc(O)c(O)c3O)c(O)c(O)c2Oc2cc1cc(O)c2O [NILOTININ M4]
[1]
  CC50 at 48 h: 361 µM
HSC-3
  CC50: 57 µM
[2]
  CC50 at 48 h: 325 µM
[3]
  CC50 at 48 h: 263 µM
HSC-2
  CC50: 35 µM
HL-60
  CC50: 30.6 µM
HSC-4
  CC50: 62 µM

## O=C(O)c1cc(O)c(O)c(Oc2c(C(=O)O[C@H]3[C@H](OC(=O)c4cc(O)c(O)c(O)c4)O[C@@H]4COC(=O)c5cc(O)c(O)c(O)c5-c5c(cc(O)c(O)c5O)C(=O)O[C@H]4[C@@H]3OC(=O)c3cc(O)c(O)c(O)c3O)cc(O)c(O)c2O)c1 [REMURIN A]
[1]
  CC50 at 48 h: 373 µM
HSC-3
  CC50: 51 µM
[2]
  CC50 at 48 h: 218 µM
[3]
  CC50 at 48 h: 170 µM
HSC-2
  CC50: 31.3 µM
HL-60
  CC50: 18.4 µM
HSC-4
  CC50: 48 µM

## O=C(O)c1cc(O)c(O)c(Oc2c(C(=O)O[C@@H]3[C@@H](OC(=O)c4cc(O)c(O)c(O)c4O)[C@@H]4OC(=O)c5cc(O)c(O)c(O)c5-c5c(cc(O)c(O)c5O)C(=O)OC[C@H]4O[C@H]3O)cc(O)c(O)c2O)c1 [REMURIN B]
[1]
  CC50 at 48 h: 375 µM
HSC-3
  CC50: 63.3 µM
[2]
  CC50 at 48 h: 337 µM
[3]
  CC50 at 48 h: 255 µM
HSC-2
  CC50: 32.3 µM
HL-60
  CC50: 41.7 µM
HSC-4
  CC50: 60 µM

## O=C1O[C@@H]2O[C@@H]3COC(=O)c4cc(O)c(O)c(O)c4-c4c(cc(O)c(O)c4O)C(=O)O[C@H]3[C@H](OC(=O)c3cc(O)c(O)c(O)c3)[C@H]2OC(=O)c2cc(Oc3c(C(=O)O[C@@H]4[C@@H](OC(=O)c5cc(O)c(O)c(O)c5)[C@@H]5OC(=O)c6cc(O)c(O)c(O)c6-c6c(cc(O)c(O)c6O)C(=O)OC[C@H]5O[C@H]4O)cc(O)c(O)c3O)c(O)c(O)c2Oc2cc1cc(O)c2O [TAMARIXININ A]
[1]
  CC50 at 48 h: 353 µM
HSC-3
  CC50: 54.3 µM
[2]
  CC50 at 48 h: 274 µM
[3]
  CC50 at 48 h: 199 µM
HSC-2
  CC50: 29.3 µM
HL-60
  CC50: 30.8 µM
HSC-4
  CC50: 59.3 µM
